# Measurements reported in patent publication US20020058072A1, “Use of iodide salt as an aphrodisiac” (priority 2000, published 2002).
# System: human
# Experiment: Oral administration to an adult human: aphrodisiac effect and increased vaginal lubrication
# Assay type: in vivo
# Details: 3 ml of 5M sodium iodide in water added to 20 ml lemon juice plus 1 tbsp sugar; patient
# Text: The terms “aphrodisiac” or “heightened sexual desire”, for the purposes of the present invention, refer to the following physical manifestations including clitoral swelling, nipple erection, contraction of the vaginal musculature, and a general tingling sensation.
# Specifically, after oral administration of an iodide salt, the subject experienced increased vaginal lubrication. The term “increased vaginal lubrication”, as used herein, refers to an increased amount of transudate present in the vagina above the amount of transudate present in the vagina above the amount of transudate present in the unstimulated state.
# The syrup was administered orally to a human, weighing approximately 165 pounds. About 0.5 to 3.0 teaspoons of the hydriodic acid syrup was admixed with approximately 8 ounces of tap water and then ingested.
# To 20 ml of lemon juice are added 3 ml of a 5M solution of sodium iodide in water, and 1 tbsp of sugar is added to the resultant solution.
smiles,measurement,value
[I-].[Na+] [sodium iodide],"reaction observed after administration (arousal, vaginal lubrication)",arousal and increased vaginal lubrication
